Broadly, the Ki is a measure of affinity in units of concentration, obtained from inhibition or displacement. A low value points to tighter binding.

In assay [1] the target is human glucagon receptor (GCGR) (Homo sapiens (Human), UniProt P47871). Kind of assay: Inhibition of 125I-glucagon binding to membranes from HEK293 cells expressing the human glucagon receptor. The following applies: membranes of hGluc-1 HEK cells, 125I-glucagon 0.3 nM. The gist of the method:
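Filtration binding assay on membranes from HEK293 cells stably expressing full-length human GCGR, 6 μg protein/well, with 0.3 nM ¹²⁵I-glucagon plus compound, 2 h at room temperature. Buffer: 50 mM HEPES pH 7.4, 5 mM MgCl2, 1 mM CaCl2, 0.2% BSA. IC50 by non-linear regression, converted to Ki.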

In the next assay the target is human GCGR (Homo sapiens (Human), UniProt P47871). Kind of assay: Cellular functional assay, cAMP readout (glucagon-stimulated cAMP in HEK293 cells expressing human GCGR). The assay is classed as cell-based. As to conditions: hGluc-1 HEK cells. The essentials:
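HEK293 cells stably transfected with full-length human GCGR were exposed to compound for 30 min before a 5-min challenge with […] (final) glucagon. Readout was TR-FRET (LANCE) cAMP versus standard curve; IC50s fitted by non-linear regression and converted to Ki values.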

[2] abbreviates: 2 hours room temperature, IC50 converted to Ki, average if tested more than once.
[3] abbreviates: LANCE TR-FRET, IC50 converted to Ki, average if tested more than once.
Setting [4] is: meta-substituted comparative compounds (Table 3).

human glucagon receptor (GCGR), sequence (P47871 26-477): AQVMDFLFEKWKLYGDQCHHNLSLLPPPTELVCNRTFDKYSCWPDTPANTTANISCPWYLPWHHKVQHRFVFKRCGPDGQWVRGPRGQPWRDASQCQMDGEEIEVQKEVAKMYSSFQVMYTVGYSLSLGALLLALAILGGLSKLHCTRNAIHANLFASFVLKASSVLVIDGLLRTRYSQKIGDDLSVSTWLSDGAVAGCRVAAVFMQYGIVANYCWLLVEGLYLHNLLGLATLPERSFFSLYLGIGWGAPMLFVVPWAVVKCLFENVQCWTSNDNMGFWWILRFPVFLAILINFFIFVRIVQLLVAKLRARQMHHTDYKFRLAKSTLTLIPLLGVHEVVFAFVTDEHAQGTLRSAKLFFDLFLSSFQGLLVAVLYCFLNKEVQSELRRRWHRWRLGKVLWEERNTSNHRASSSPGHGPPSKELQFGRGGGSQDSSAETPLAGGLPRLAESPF
human GCGR, sequence (P47871 26-477): as above

As for `C=C(C)c1ccc(CNc2ccc(-c3ccc(F)cc3)cc2)c(-c2ccc(C(=O)NCCC(=O)O)nc2)c1` [Compound 157, 3-(5-(2-(((4′-fluoro-[1,1′-biphenyl]-4-yl)amino)methyl)-5-(prop-1-en-2-yl)phenyl)picolinamido)propanoic acid], the Ki in assay [1] (setting [2]) worked out at 33.5 nM; on human GCGR (setting [3]) it was 113 nM.
For the compound `CC(C)c1ccc(CNc2ccc(-c3ccc(F)cc3)cc2)c(-c2ccc(C(=O)NCCC(=O)O)nc2)c1` [Compound 158, 3-(5-(2-(((4′-fluoro-[1,1′-biphenyl]-4-yl)amino)methyl)-5-isopropylphenyl)picolinamido)propanoic acid], the Ki in assay [1] (setting [2]) worked out at 20 nM; at human GCGR (setting [3]) it was 125 nM.
For `CC(C)(C)c1ccc(-c2ccc(NCc3ccc(Cl)cc3-c3ccc(C(=O)NCCC(=O)O)nc3)cc2Cl)cc1` [Compound 168, 3-(5-(2-(((4′-(tert-butyl)-2-chloro-[1,1′-biphenyl]-4-yl)amino)methyl)-5-chlorophenyl)picolinamido)propanoic acid] the same measures were 37.9 nM and 370 nM.
Taken in the same sequence, the figures for `O=C(O)CCNC(=O)c1ccc(-c2cc(Cl)ccc2CNc2ccc(-c3ccc(Cl)c(C(F)(F)F)c3)c(Cl)c2)cn1` [Compound 169, 3-(5-(5-chloro-2-(((2,4′-dichloro-3′-(trifluoromethyl)-[1,1′-biphenyl]-4-yl)amino)methyl)phenyl)picolinamido)propanoic acid] were 39 nM and 142 nM.
As for `O=C(O)CCNC(=O)c1ccc(-c2cc(Cl)ccc2CNc2ccc(-c3cccc(C(F)(F)F)c3)c(Cl)c2)cn1` [Compound 170, 3-(5-(5-chloro-2-(((2-chloro-3′-(trifluoromethyl)-[1,1′-biphenyl]-4-yl)amino)methyl)phenyl)picolinamido)propanoic acid], the results for the inhibition constant Ki (in assay [1] (setting [2]); at human GCGR (setting [3])) were 20.7 nM and 66.8 nM, respectively.
For `O=C(O)CCNC(=O)c1ccc(-c2cc(Cl)ccc2CNc2ccc(-c3ccc(F)c(Cl)c3)c(Cl)c2)cn1` [Compound 171, 3-(5-(5-chloro-2-(((2,3′-dichloro-4′-fluoro-[1,1′-biphenyl]-4-yl)amino)methyl)phenyl)picolinamido)propanoic acid] the same measures were 36 nM and 117 nM.
`Cc1ccc(-c2ccc(NCc3ccc(Cl)cc3-c3ccc(C(=O)NCCC(=O)O)nc3)cc2Cl)cc1` [Compound 172, 3-(5-(5-chloro-2-(((2-chloro-4′-methyl-[1,1′-biphenyl]-4-yl)amino)methyl)phenyl)picolinamido)propanoic acid]: the Ki in assay [1] (setting [2]) stood at 26.9 nM; on human GCGR (setting [3]), 69.2 nM.
For `O=C(O)CCNC(=O)c1ccc(-c2cc(-c3ccccc3)ccc2CNc2ccc(-c3ccc(Cl)cc3Cl)cc2)cn1` [Compound 173, 3-(5-(4-(((2′,4′-dichloro-[1,1′-biphenyl]-4-yl)amino)methyl)-[1,1′-biphenyl]-3-yl)picolinamido)propanoic acid] the same measures were 27 nM and 67.5 nM.
For `O=C(O)CCNC(=O)c1ccc(-c2cc(C3=CCCCC3)ccc2CNc2ccc(-c3ccc(F)cc3)cc2)cn1` [Compound 174, 3-(5-(4-(((4′-fluoro-[1,1′-biphenyl]-4-yl)amino)methyl)-2′,3′,4′,5′-tetrahydro-[1,1′-biphenyl]-3-yl)picolinamido)propanoic acid] the same measures were 18.3 nM and 110 nM.
Taken in the same sequence, the figures for `O=C(O)CCNC(=O)c1ccc(-c2cc(C3CCCCC3)ccc2CNc2ccc(-c3ccc(F)cc3)cc2)cn1` [Compound 175, 3-(5-(5-cyclohexyl-2-(((4′-fluoro-[1,1′-biphenyl]-4-yl)amino)methyl)phenyl)picolinamido)propanoic acid] were 24.2 nM and 45.8 nM.
For the compound `O=C(O)CCNC(=O)c1ccc(-c2cc(C3=CCCCC3)ccc2CNc2ccc(-c3ccc(Cl)cc3Cl)cc2)cn1` [Compound 176, 3-(5-(4-(((2′,4′-dichloro-[1,1′-biphenyl]-4-yl)amino)methyl)-2′,3′,4′,5′-tetrahydro-[1,1′-biphenyl]-3-yl)picolinamido)propanoic acid], the Ki in assay [1] (setting [2]) amounted to 40 nM; on human GCGR (setting [3]), 160 nM.
Turning to `O=C(O)CCNC(=O)c1ccc(-c2cc(Cl)cc(CNc3ccc(-c4ccc(F)cc4)cc3)c2)cn1` [Compound M1, 3-(5-(3-chloro-5-(((4′-fluoro-[1,1′-biphenyl]-4-yl)amino)methyl)phenyl)picolinamido)propanoic acid, reference compound], the results for the Ki (in assay [1] (setting [4]); at human GCGR (setting [4])) were above 2700 nM and above 10400 nM, respectively.
For `COc1ccc(-c2ccc(NCc3cc(Cl)cc(-c4ccc(C(=O)NCCC(=O)O)nc4)c3)cc2)cc1` [Compound M2, 3-(5-(3-chloro-5-(((4′-methoxy-[1,1′-biphenyl]-4-yl)amino)methyl)phenyl)picolinamido)propanoic acid, reference compound] the same measures were above 2700 nM and above 10400 nM.
Taken in the same sequence, the figures for `O=C(O)CCNC(=O)c1ccc(-c2cc(Cl)cc(CNc3ccc(-c4ccc(Cl)cc4)cc3)c2)cn1` [Compound M3, 3-(5-(3-chloro-5-(((4′-chloro-[1,1′-biphenyl]-4-yl)amino)methyl)phenyl)picolinamido)propanoic acid, reference compound] were above 1350 nM and above 10400 nM.
Taken in the same sequence, the figures for `O=C(O)CCNC(=O)c1ccc(-c2cc(Cl)cc(CNc3ccc(-c4ccc(Cl)cc4Cl)cc3)c2)cn1` [Compound M4, 3-(5-(3-chloro-5-(((2′,4′-dichloro-[1,1′-biphenyl]-4-yl)amino)methyl)phenyl)picolinamido)propanoic acid, reference compound] were above 1350 nM and above 10400 nM.
As for `O=C(O)CCNC(=O)c1ccc(-c2cc(Cl)cc(C(=O)Nc3ccc(-c4ccc(Cl)cc4)cc3)c2)cn1` [Compound M5, 3-(5-(3-chloro-5-((4′-chloro-[1,1′-biphenyl]-4-yl)carbamoyl)phenyl)picolinamido)propanoic acid, reference compound], the Ki in assay [1] (setting [4]) was above 5400 nM; at human GCGR (setting [4]) it was above 10400 nM.

For the origin of these results see US8748624B2, “Picolinamido-propanoic acid derivatives useful as glucagon receptor antagonists” (Janssen Pharmaceutica NV, priority 2011, dated 2014).
